Read-outs that look alike come from different tables or passages of the source. Bounds are passed on as bounds.

One may read the pKa as the negative logarithm of the acid dissociation constant.

The test system of series [1] is phosphoinositide (PIP and PIP2) turnover in Dictyostelium AX2 cells. Kind of series: Dictyostelium phospholipid labelling (PIP and PIP2 turnover). The note with it: for activity at 500 µM: Dictyostelium, 0.1 h. In kind it is cell-based, Dictyostelium discoideum. As to the method: Phospholipid labelling was quantified using a Typhoon phosphor-imager. Even loading was determined using total lipid stain with copper sulphate.

In series [2] the test system is PTZ-induced epileptiform activity in entorhinal cortex-hippocampal slices. Description: In vitro PTZ acute seizure model, entorhinal cortex-hippocampus slices. In kind it is cell-based, rat. The note with it: PTZ 2 mM, [K+] 6 mM; compounds equimolar 1 mM; 30 to 40 minutes after application. As to the method:
The rats (p21) were decapitated after killing by intraperitoneal injection with an overdose of pentobarbitone (500 mg/kg). The brain was removed and placed in ice-cold sucrose solution in mM: NaCl 87, KCl 2.5, MgCl2 7, CaCl2 0.5, NaH2PO4 1.25, sucrose 75, glucose 25, equilibrated with 95% 02/5% CO2 (pH 7.4). Horizontal combined entorhinal cortex-hippocampus slices (350 μm) were prepared with a Leica vibratome (Leica V T1200S) and were then stored in an interface chamber that contained artificial cerebrospinal fluid solution (aCSF) containing in mM: NaCl 119, KCl 2.5, MgSO4 4, CaCl2 4, NaHCO326.2, NaH2PO4 1, glucose 11, and gassed with 95% O2/5% CO2. They were stored for over one hour before being transferred to a submersion recording chamber continually perfused with carbogenated aCSF for recording. Field potential recordings were made by placing glass microelectrodes (˜1-2 MΩ) filled with aCSF solution in stratum radiatum of CA1. Bipolar stimulating electrodes were positioned in the Schaffer collateral/commissural fibre pathway in stratum radiatum to confirm slice viability. In the PTZ acute seizure model, PTZ (2 mM) was added to the perfusate and [K+] was increased to 6 mM in order to induce epileptiform activity (Armand et al., 1998). In the low Mg^2+ acute seizure model, Mg^2+ free aCSF was applied to generate rhythmic short recurrent discharges. Novel anticonvulsants were applied once the frequency and amplitude of the epileptiform discharges were stable over a period of 10 min. Anticonvulsant effects were evaluated by measuring the variation of frequency of the discharges every minute. The data acquired from the 30 to 40 minutes after application novel anticonvulsants were compared by ANOVA followed by post-hoc testing using Tukey test, using SPSS statistical analysis.

Series [3] concerns release of 3H arachidonic acid / palmitic acid radiolabel from Dictyostelium cells. Kind of series: Fatty acid release (3H radiolabel release from labelled cells). The settings on record: for activity at 500 µM: Dictyostelium, 0.5 h, 3H-AA labelled cells, 0.5 mM treatment, read-out: AA release [% of control]; for effect of PLA2 inhibitors on radiolabel release from 3H-AA cells: BEL 80 μM, MAFP 50 μM, BPB 20 μM, cocktail of all three. In kind it is cell-based, Dictyostelium discoideum.

Series [4] has as its system uptake of 3H arachidonic acid / palmitic acid into Dictyostelium cells. Kind of series: Fatty acid uptake (3H radiolabel incorporation into cells). In kind it is cell-based, Dictyostelium discoideum.
For series [5] the following is noted: Table 2; cited from earlier work.
Series [6] relates to inositol levels in Dictyostelium cells. Kind of series: Inositol levels in treated Dictyostelium cells. In kind it is cell-based, Dictyostelium discoideum. The note with it: time period causing phosphoinositide attenuation (9 min). On the procedure: Following a 6 min incubation, labelling solution was removed and cells were lysed in acidified methanol and phospholipids were separated as previously detailed (Williams et al., 1999). Phospholipid labelling was quantified using a Typhoon phosphor-imager. Even loading was determined using total lipid stain with copper sulphate. Inositol levels were measured from five hour developed cells (similar to phospholipid labelling), following lyophilisation, as previously described (Maslanski & Busa, 1990).

[7] abbreviates: Table 1, 0.5 mM compound, 3 min pre-treatment + 6 min labelling, wild type Dictyostelium.
The mark [8] stands for this setting: read-out: PIP Level (% control), Table 1, 0.5 mM compound, 3 min pre-treatment + 6 min labelling, wild type Dictyostelium.
The mark [9] stands for this setting: read-out: PIP level % control, Table 2, VPA and straight chain acids in Dictyostelium.
[10] abbreviates: Table 1, wild type Dictyostelium.

With 4-hexenoic acid, (cis + trans), in series [1] (setting [7]), the “PIP Level (% control)” value stood at 58 % control.

On to `C=CCC(C)(C)C(=O)O` [2,2-dimethyl-4-pentenoic acid], for which the activity at 500 µM in series [1] (setting [8]) turned out to be 60%.

Take `CCCCC(C)(C)C(=O)O` [2,2-dimethylhexanoic]: the “PIP Level (% control)” value in series [1] (setting [7]) came out at 29.7 % control.

With `CCCCCCC(CO)CCCC` (stereo not drawn) [2-butyl-1-octanol], the activity at 500 µM in series [1] (setting [8]) stood at 93%.

Consider `CCCCCCC(CCCC)C(=O)O` (stereo not drawn) [2-butyloctanoic acid], for which the “frequency of epileptiform discharges (seizure discharge frequency)” value (from here on “frequency of epileptiform discharges”) in series [2] is on record as 5.2±5.0%.

On to `CCCCCCCCC(CC)C(=O)O` (stereo not drawn) [2-ethyl-decanoic], for which the activity at 500 µM in series [3] (Table 3, 30 min) stood at 73%.

Regarding `CCCCC(CC)C(=O)O` (stereo not drawn) [2-ethylhexanoic acid], the activity at 500 µM in series [1] (setting [8]) is 22.2%.

For `CCCCCCCCC(CO)CCCCCC` (stereo not drawn) [2-hexyl-1-decanol], the activity at 500 µM in series [1] (setting [8]) stood at 191%.

With `CCCCCC(C)C(=O)O` (stereo not drawn) [2-methylheptanoic], in series [1] (setting [7]), the “PIP Level (% control)” value is on record as 16.1 % control.

`CCCCC(C)C(=O)O` (stereo not drawn) [2-methylhexanoic acid]: the activity at 500 µM in series [1] (setting [8]) came to 68.1%.

On to `CCCC(C)C(=O)O` (stereo not drawn) [2-methylpentanoic acid], for which the activity at 500 µM in series [1] (setting [8]) stood at 59%.

Turning to `CCCC(CO)CCC` [2-propyl-1-pentanol], the activity at 500 µM in series [1] (setting [8]) is 101%.

As for `CCCCCCCCC(CCC)C(=O)O` (stereo not drawn) [2-propyl-decanoic acid], in series [3] (Table 3, 30 min), the activity at 500 µM was 56%.

Regarding `CCCCCCC(CCC)C(=O)O` (stereo not drawn) [2-propyloctanoic acid], in series [2], the “frequency of epileptiform discharges” value is on record as 5.3±3.3%. In addition, in series [3] (Table 3, 30 min), the activity at 500 µM worked out at 45%. In addition, the “radiolabel release activity relative to control” value in series [3] (Table 3, 30 min, 0.5 mM) is reported as ≤ 45 % of control.

Take `CC(CC(=O)O)CC(C)(C)C` (stereo not drawn) [3,5,5-trimethylhexanoic acid]: in series [1] (setting [8]), the activity at 500 µM turned out to be 32%.

Turning to `C=CC(C)CC(=O)O` (stereo not drawn) [3-methyl-4-pentenoic acid], the activity at 500 µM in series [1] (setting [8]) turned out to be 84%.

On to `CCC(C)CC(=O)O` (stereo not drawn) [3-methylpentanoic acid], for which the activity at 500 µM in series [1] (setting [8]) came to 64%.

For the compound `CCCCCCCCC(C)CC(=O)O` (stereo not drawn) [3-methylundecanoic acid], in series [1] (setting [8]), the activity at 500 µM amounted to 50%.

As for `CCCCC(CC)CCC(=O)O` (stereo not drawn) [4-ethyloctanoic acid], the activity at 500 µM in series [1] (setting [8]) amounted to 13.2%; in series [3] (Table 3, 30 min), 87%.

As for `CCC(C)CCC(=O)O` (stereo not drawn) [4-methylhexanoic acid], the activity at 500 µM in series [1] (setting [8]) amounted to 68%.

Take `CCCCCC(C)CCC(=O)O` (stereo not drawn) [4-methylnonanoic acid]: the activity at 500 µM in series [1] (setting [8]) turned out to be 45%; in series [3] (Table 3, 30 min) it was 63%.

With `CC(C)CCCC(=O)O` [5-methylhexanoic acid], the activity at 500 µM in series [1] (setting [8]) was 7.2%.

For the compound `O=C1O/C(=C/Br)CCC1c1cccc2ccccc12` (stereo not drawn) [BEL, reference compound], in series [3], the “effect of PLA2 inhibitors on radiolabel release from 3H-AA cells” value is “reduced radiolabel release”.

Take `O=C(CBr)c1ccc(Br)cc1` [BPB, reference compound]: the “effect of PLA2 inhibitors on radiolabel release from 3H-AA cells” value in series [3] is reported as “reduced radiolabel release”.

As for `CC(C)C(C(=O)O)C(C)C` [DIA, diisopropylacetic acid], the activity at 500 µM in series [1] (setting [8]) stood at 18.6%.

Consider `O=C(O)C(c1ccccc1)c1ccccc1` [Diphenylacetic acid, 2,2-diphenylacetic acid], for which the activity at 500 µM in series [1] (setting [8]) is 39%.

`NCCCC(=O)O` [GABA, 4-aminobutanoic acid, reference compound]: the activity at 500 µM in series [1] (setting [8]) is 60.8%.

In the case of `CNC(=O)C1C(C)(C)C1(C)C` [MTMCD, N-methyl-tetramethyl-cyclopropane carboxamide], the “PIP Level (% control)” value in series [1] (setting [7]) worked out at 50.8 % control.

Regarding `CCCC(C(=O)O)C(C)C` (stereo not drawn) [PIA, propylisopropylacetic acid], in series [1] (setting [8]), the activity at 500 µM was 15.4%. Further, the “inhibitory effect on radiolabel release” value in series [3] (3H-AA, FIG. 9) is on record as “strong”. The “effect on 3H-AA uptake compared with VPA” value in series [4] (3H-AA, FIG. 9) is “elevated uptake”.

For the compound `CCCC(C(N)=O)C(C)C` (stereo not drawn) [PID, propylisopropylacetamide], the activity at 500 µM in series [1] (setting [8]) is 59%.

As to `CC(C)(C)CC(=O)O` [TBA, tert-butylacetic acid], in series [1] (setting [8]), the activity at 500 µM worked out at 21.4%.

As to `CC1(C)C(C(=O)O)C1(C)C` [TMCA, tetramethylcyclopropane carboxylic acid], the “PIP Level (% control)” value in series [1] (setting [7]) was 33.9 % control.

Turning to `CC1(C)C(C(N)=O)C1(C)C` [TMCD, tetramethylcyclopropane-carboxamide], the “PIP Level (% control)” value in series [1] (setting [7]) worked out at 72.5 % control.

Turning to `CCCCCCCCCC(=O)O` [decanoic acid], the activity at 500 µM in series [1] (setting [8]) is 12.9%; in series [1] (setting [9]), 12.9%; in series [3] (Table 3, 30 min), 62%. Further, the “frequency of epileptiform discharges” value in series [2] is listed as 0.23±0.23%.

Regarding `CCCCCCCCCCCC(=O)O` [dodecanoic acid], the activity at 500 µM in series [1] (setting [8]) was determined as 42%; in series [1] (setting [9]), 42%; in series [3] (Table 3, 30 min), 89%. The pKa in series [5] is listed as 4.85.

With `CCCCCCCCCCCCCCCCC(=O)O` [heptadecanoic acid], the activity at 500 µM in series [1] (setting [8]) and in series [1] (setting [9]) was 92.3% throughout. In series [5], the pKa is recorded as 4.78.

Take `CCCCCCC(=O)O` [heptanoic acid]: the activity at 500 µM in series [1] (setting [8]) and in series [1] (setting [9]) was 31.2% in each case. In addition, the pKa in series [5] is listed as 4.89.

On to `CCCCCC(=O)O` [hexanoic acid], for which the activity at 500 µM in series [1] (setting [8]) and in series [1] (setting [9]) was 49.2% in each case.

As to `CCCCC(=O)OC` [methylvalerate], the activity at 500 µM in series [1] (setting [8]) is 46%.

As to `CCCOC(=O)C(C)CCC` (stereo not drawn) [n-propyl 2-methylvalerate], in series [1] (setting [8]), the activity at 500 µM worked out at 121%.

Regarding `CCCCCCCCC=O` [nonanal], the activity at 500 µM in series [1] (setting [8]) amounted to 99%.

On to `CCCCCCCCC(=O)O` [nonanoic acid], for which the activity at 500 µM in series [1] (setting [8]) was 8%; in series [1] (setting [9]), 8%; in series [3] (Table 3, 30 min), 66%. Moreover, the “reduction of PIP2 signalling” value in series [1] (setting [10]) was found to be 93%. For the same compound, the “reduction of PIP signalling” value in series [1] (setting [10]) is 92%. In addition, in series [2], the “frequency of epileptiform discharges” value came out at 20.9±7.5%. Moreover, the “reduction in inositol levels” value in series [6] is recorded as “do not acutely deplete inositol”. Besides, the pKa in series [5] is recorded as 4.95.

As for `CCCCCCCC=O` [octanal], the activity at 500 µM in series [1] (setting [8]) stood at 260%.

As for `CCCCCCCC(=O)O` [octanoic acid], the activity at 500 µM in series [1] (setting [8]) was found to be 16.7%; in series [1] (setting [9]) it was 16.7%; in series [3] (Table 3, 30 min), 72%. Also, the pKa in series [5] is 4.89.

Take `CCCCC=O` [pentanal]: the activity at 500 µM in series [1] (setting [8]) was found to be 52%.

Turning to `CCCCC(=O)O` [pentanoic acid], the activity at 500 µM in series [1] (setting [8]) and in series [1] (setting [9]) was 66.9% each time. In series [2], the “frequency of epileptiform discharges” value is on record as “not seen”. Also, the pKa in series [5] is given as 4.84.

Consider `CC/C=C/C(=O)O` [trans-pent-2-enoic acid], for which, in series [1] (setting [8]), the activity at 500 µM was 50.4%.

Consider `CCC(C)C(CC)C(N)=O` (stereo not drawn) [valnocatmide, 2-ethyl-3-methyl valeramide, reference compound], for which the “PIP Level (% control)” value in series [1] (setting [7]) was 64 % control.

Tert-butyl amide: the “PIP Level (% control)” value in series [1] (setting [7]) was 47.6 % control.

latrunculin: in series [4] (latrunculin 10 μM), the “effect on VPA-induced AA uptake” value is “failed to attenuate” and the “fatty acid uptake in control cells” value was “decreased uptake”.

(Values after US11491127B2, “Therapeutic use of compounds” (UCL BUSINESS LTD, priority 2010, dated 2022).)
